Patent US8598145B2, “Mitochondrially delivered anti-cancer compounds” (priority 2008, dated 2013)
Read-outs that look alike come from different tables or passages of the source.

Tests used:
[1] = tested on: breast carcinomas; assay: Spontaneous ductal breast carcinomas in transgenic mice (FIG. 9); type: in vivo, FVB/N c-neu mice
Procedure: The transgenic FVB/N c-neu female mice with spontaneous small breast carcinomas were treated with MitoVES at 3 μmol per mouse per dose and the tumour volume was assessed by repeated ultrasound imaging, monitoring tumour growth over several weeks.
For this purpose, the transgenic FVB/N c-neu mice that form spontaneous ductal breast carcinomas due to high level of expression of the oncogene, HER2 were used as a cancer model.

[2] = tested on: EAhy926 cells; assay: Apoptosis in proliferating and arrested endothelial cells (FIG. 6); type: cell-based, human; conditions: EAhy926 at ~50% or 100% confluency
Procedure: Parental EAhy926 cells were seeded in 24-well plate so that they would acquire after an overnight recuperation ˜50% or 100% confluency, while their ρ^0 counterparts were seeded at 50% confluency. The proliferating and confluent cells were then exposed to MitoVES at concentrations and for times shown, and assessed for apoptosis level by the Annexin V-binding method (A) and for ROS accumulation using the fluorescent probe DHE (B).
Toxicity of α-TOS, VE11S (“VES”), MitoVE3S, MitoVE5S, MitoVE7S, MitoVE9S, MitoVE11S (“MitoVES”), MitoVE11AE (“MitoVEAE”), MitoVE11F (“MitoVEF”), MitoVE11M (“MitoVEM”), and VES4TPP towards cancer cells was assessed on the basis of IC50, as detailed in Turanek, J., et al. ((2008). Liposomal formulation of vitamin E analogs as an efficient and selective anti-cancer treatment. Clin. Cancer Res. (submitted)). […]

[3] = tested on: MS cells; assay: ROS production by flow cytometry, mammosphere cells (FIG. 8); type: cell-based, human; conditions: 3 h; α-TOS 50 μM, MitoVES homologues 5 μM
Procedure: Adherent MCF7 cells and the corresponding mammosphere cells (MS) were cultured and assessed for morphological changes by microscopy (A) and for expression levels of markers as indicators of “sternness” by RT-PCR (B) and flow cytometry (C), including the expression of CD44 and CD24 (D). The adherent MCF7 cells (E) and the MS cells (F) were treated with 5 μM MitoVES, 50 μM α-TOS or 10 μM parthenolide and assessed for their sensitivity to drug induced cell death. […] Adherent MCF7 cells (I) and MS cells (J) were treated for 3 h with α-TOS (50 μM) or MitoVES homologues containing different lengths in the aliphatic side chain (5 μM each, either 11, 7 or 5 carbon chain in length) and the treated cells assessed for production of reactive oxygen species (ROS) by flow cytometry.
Cellular ROS were detected indirectly by flow cytometry and directly by electron paramagnetic resonance (EPR) spectroscopy, following treatment of cells with α-TOS as indicated in the Legend to Figures. […] For indirect evaluation, cells were treated with α-TOS and reacted with dihydrodichlorofluorescein diacetate (DCF; Molecular Probes) for 30 min, and scored by flow cytometry for cells with high fluorescence, which was evaluated on the bases on increase in mean fluorescence intensity. […]

[4] = cited from earlier work

| SMILES | progression of breast cancer tumours ([1]; 3 μmol per mouse per dose, tumour volume by ultrasound imaging) | toxicity in treated animals ([1]; FVB/N c-neu mice) | fold lower concentrations than needed for corresponding activity of α-TOS ([1]; relative to α-TOS) [fold] | apoptosis in proliferating versus arrested endothelial cells [2] | ROS production in MS cells [3] | fold higher percentage in the protonated form ([4]; acidic pH of 6.2-6.4 of the tumour interstitium versus neutral pH) | fraction deprotonated ([4]; at neutral pH) [%] | pKa [4] | pKa ([4]; listed as α-tocopheryl succinate) |
| --- | --- | --- | --- | --- | --- | --- | --- | --- | --- |
| Cc1c(C)c2c(c(C)c1OC(=O)CCC(=O)[O-])CCC(C)(CCCCCCCCCCC[P+](c1ccccc1)(c1ccccc1)c1ccccc1)O2 (stereo not drawn) [MitoVE11S] | completely blocked progression | no obvious sign of toxicity | ~10 | causes apoptosis in proliferating but not arrested endothelial cells |  |  |  |  |  |
| Cc1c(C)c2c(c(C)c1OC(=O)CCC(=O)O)CC[C@@](C)(CCC[C@H](C)CCC[C@H](C)CCCC(C)C)O2 [α-TOS, α-tocopheryl succinate, reference compound] |  |  |  |  | much lower levels | 10-15 fold | ~98 | < 6 | 5.6 |
